Like-named read-outs stand apart in the source and are kept apart here. Marks after values point to notes of the source that are not given here.
Legend:
[1] = test system: white blood cells in mice bearing Lewis lung tumor
From the text: The vigorously growing tumor cells were taken and prepared into cell suspension with a concentration of about 5-10×10^6/ml by homogenization under sterile condition.
At the beginning of the experiment, 10 mice were randomly sampled for blood collection by posterior orbital venous plexus puncture, and an automatic blood cell analyzer (HEMAVET-950) was used to conduct the routine blood test. Then the blood was collected for the routine blood test by the same method on the 8th and 12th days after the last administration of cyclophosphamide.

[2] = test system: white blood cells in tumor patients; details: for Effect of increasing WBC (C1/Czs): all 10 subjects, 15-45 mg total daily dose, Day 0 = 100%; for average extent of increasing white blood cells: average of subjects
Description: Blood was collected on the day before the administration, and the routine blood test was conducted to determine the number of white blood cells (Czs) before the subjects were treated with the medicine of the present invention.
10 subjects took ACP at different administrated frequency and dose every day (see Table 2). Blood was collected from 10 subjects at Day 8, 15, 22, and 28 for routine blood test.

[3] = chemotherapy control group, CTX 150/100 mg/kg ip, reference = 100%
[4] = subject GBYI, Day 0 count 4.3, once a day, total daily dose 15 mg
[5] = subject LXJV, Day 0 count 2.7, three times a day, total daily dose 30 mg

SMILES: O=P1(N(CCCl)CCCl)NCCCO1 (centres unmarked) [CTX, cyclophosphamide]
- effect on white blood cells of peripheral blood in mice ([1]; chemotherapy control group): caused a decrease of white blood cells of peripheral blood in mice
- Day 8 (10^3 WBC/μl) ([1]; chemotherapy control group, CTX 150/100 mg/kg ip, 8th day after last CTX): 0.41 ± 0.07 10^3 WBC/μl
- Day 12 (10^3 WBC/μl) ([1]; chemotherapy control group, CTX 150/100 mg/kg ip, 12th day after last CTX): 1.48 ± 0.37 10^3 WBC/μl
- Day 8 (%) [1, 3]: 100%
- Day 12 (%) [1, 3]: 100%

SMILES: C#C[C@@]1(OC(C)=O)C[C@@H]2CC[C@@H]3[C@H](CC[C@@]4(C)[C@H]3CC[C@]4(C#C)OC(C)=O)[C@@]2(C)C1 [ACP1, 2α,17α-diethynyl-A-decarbonized-5α-androstane-2β,17β-dihydroxyl diacetate compound]
- Day 8 (10^3 WBC/μl) ([1]; mouse, in vivo, 5 mg/kg): 4.21 ± 1.22 10^3 WBC/μl
- Day 8 (%) ([1]; mouse, in vivo, 5 mg/kg): 1027%*
- Day 12 (10^3 WBC/μl) ([1]; mouse, in vivo, 5 mg/kg): 4.32 ± 1.29 10^3 WBC/μl
- Day 12 (%) ([1]; mouse, in vivo, 5 mg/kg): 292%*
- Effect of increasing WBC (C1/Czs) ([2]; Day 8): 146%
- extent of increasing white blood cells (Cl/Czs-100%) ([2]; Day 8, compared with before treatment): about 50%
- Effect of increasing WBC (C1/Czs) ([2]; Day 15): 180%
- average extent of increasing white blood cells ([2]; Day 15): about 80%
- maximum extent of increasing white blood cells ([2]; Day 15, maximum among subjects): about 178%
- extent of increasing white blood cells ([2]; Day 22): about 63%
- Effect of increasing WBC (C1/Czs) ([2]; Day 22): 163%
- Effect of increasing WBC (C1/Czs) ([2]; Day 28): 149%
- average extent of increasing white blood cells ([2]; Day 28): about 50%
- WBC count during administration, Day 8 [2, 4]: 5.8 10^9/L
- WBC count during administration, Day 15 [2, 4]: 6.9 10^9/L
- WBC count during administration, Day 22 [2, 4]: 6.3 10^9/L
- WBC count during administration, Day 28 [2, 4]: 7.0 10^9/L
- WBC count during administration, Day 8 [2, 5]: 5.9 10^9/L
- WBC count during administration, Day 15 [2, 5]: 7.5 10^9/L
- WBC count during administration, Day 22 [2, 5]: 6.0 10^9/L
- WBC count during administration, Day 28 [2, 5]: 6.1 10^9/L
